{"source": "patent US20060188867A1", "about": "“Method of cryopreserving cells and tissues by liposomal delivery of sugars to enhance post-thaw viability” (Canadian Blood Services, priority 2005, published 2006)", "test_system": "red blood cells (RBCs)", "experiment": "flow cytometry of liposomal loading of carboxyfluorescein/trehalose into red blood cells, FIGS. 1A-1E", "assay_type": "cell-based, human", "details": "no liposomes (FIG. 1C)", "procedure": "However, it should be noted that the ratio of DPPC to cholesterol can, of course, be varied, as will be appreciated by those of ordinary skill in the art. The liposomes also have an aqueous core that can be composed of, by way of example only, 3.3 mM NaCl, 40 mM KCl, 1.7 mM glucose, 6.7 mM HEPES, 200 mM sucrose or trehalose and 100 μM 5(6)-carboxyfluorescein (CF). As it is known in the art, 5(6)-CF is an impermeable fluorescent marker with a molecular weight similar to that of sucrose and trehalose. This marker can be used to detect the liposome population using flow cytometry and is thus a useful and reliable indicator of loading efficiency. A single uniform population and intense FITC (Fluorescein isothiocyanate) peak verify liposome homogeneity and entrapment of the marker in the aqueous core.\nIn order to validate the methods described herein, human red blood cells and TF-1 (CRL2003, ATTC) cells were used as […] model systems. The mechanism of liposomal interaction with the cell is believed to be cell-type dependent and is believed to involve processes of adsorption, fusion and endocytosis.\nFIGS. 1A to 1E are flow cytometry plots used to examine the effects of loading trehalose into red blood cells (RBCs). Liposomes composed of DPPC/cholesterol in the ratio of 70:30 were constructed so as to have a concentration of 0.29M trehalose inside and outside. […]", "data": [{"substance": "5(6)-carboxyfluorescein [CF]", "values": [{"measurement": "permeation of free CF into RBCs (fluorescence of RBCs in CF-containing media)", "result": "cannot cross into RBCs"}]}]}
